This note sets out measurements from article PMC6261607, “Novel high–throughput myofibroblast assays identify agonists with therapeutic potential in pulmonary fibrosis that act via EP2 and EP4 receptors” (PLoS ONE, 2018).

Assay [1] deals with TGF–β1–induced NHLF myofibroblasts. The experiment in a line: HCA, NHLF myofibroblast reversal assay. The format is cell-based. The note with it: Homo sapiens; reversal assay: 24 h 5 ng/ml TGF–β1, washed, 72 h compound. Here is the method:
Each well of a 384–well clear bottom microtiter plate was coated with 0.1% laminin solution for 60 min at 37°C and rinsed once with PBS. NHLF cells were seeded at a density of 750 cells / well in a volume of 40 μl FGM–2 medium and grown for 24 h at 37°C, 5% CO2 and 95% relative humidity. The plate was washed 3 times with starvation medium, e.g. fibroblast basal medium (FBM, Lonza) supplemented with 0.1% faf BSA, 100 units / ml of penicillin and 100 μg / ml of streptomycin and 250 ng / ml amphotericin B, and then starved for 24 h in 30 μl volume. NHLF were differentiated into myofibroblasts by incubation with 5 ng / ml TGF–β1 (from a stock of 20 μg / ml in 4 mM HCl, 1 mg / ml BSA) for 48 h. Compounds were prepared as 5x stocks in starvation medium and added to the starved cells to a final 1x concentration concomitant with TGF–β1 addition. The final DMSO concentration in the assay was 0.6% in all wells. 48 h after TGF–β1 addition, the medium was removed and the cells were fixed in methanol for 10 min at room temperature (RT). After fixation, cells were washed 3 times with 1 x PBS and either stored at 4°C for up to 3 days or further processed. The fixed cells were blocked with 10% goat serum in PBS, 0.25% Tween–20 for 60 min at RT. The primary antibodies, i.e., mouse monoclonal anti–α–SMA (Sigma–Aldrich) and rabbit anti–FN antibody (Sigma–Aldrich), were diluted 1:400 in 10% goat serum in PBS, 0.25% Tween–20 and the fixed cells were incubated with the antibodies for 60 min at RT. After washing the cells 3 times with 1 x PBS, 0.25% Tween–20 the detection antibodies, i.e., goat anti–mouse AlexaFluor 488 (Invitrogen) and goat anti–rabbit AlexaFluor 647 (Invitrogen) were diluted 1:1000 in 1 x PBS, 0.25% Tween–20 and incubated for 1 h at RT together with 1 μg / ml DAPI to stain nuclei and HCS CellMask Orange Stain to label the entire cell. The stained cells were washed 3 times with 1 x PBS containing 0.25% Tween–20, followed by three washes in 1 x PBS, sealed with backing tape and stored at 4°C. Images were acquired on the Opera Phenix confocal high–content screening system (Perkin Elmer) using the 20–x water immersion lens.
Image analysis: The image data acquired with the HCS system were uploaded to ORBIT, an open source image analysis software developed at Idorsia Pharmaceuticals Ltd (http://www.orbit.bio), and analyzed using 288 CPUs in parallel on our computing grid with the ORBIT Cell–Classifier framework using an appropriate CellProfiler pipeline. DAPI stained nuclei were used to identify cells. α–SMA and FN regions were then identified and mapped to the corresponding nuclei for background correction, cell segmentation and cell feature computation to identify, classify and weigh over 400 features per cell. The computed features (S1 Table) comprise, but are not limited to, granularity, intensity, texture, area, shape and solidity of a cell in both α–SMA–and FN–expressing regions. The 0% compound effect (5 ng / ml TGF–β1) and the 100% compound effect (0 ng / ml TGF–β1) controls, were used to train and validate a support vector machine (SVM), a supervised learning model with associated learning algorithm that, once successfully validated, was applied to every cell in every well of the assayed microtiter plate. The SVM allowed autonomous weighting and classification of the characteristics and thus enabled the classifier to decide which characteristics were most relevant for the differentiation of the cell types. […] The classification of each cell was aggregated to a cell type ratio per well, represented as the computed percentage effect value per well indicative of the degree of myofibroblast differentiation. E.g. 100% equals complete myofibroblast differentiation, 0% indicates a pure fibroblast population without any signs of differentiation.
To identify compounds with potential to revert differentiated myofibroblasts to fibroblasts the assay procedures were modified.

Assay [2] has as its system COL1 protein in TGF–β1–induced NHLF myofibroblasts. The experiment in a line: MS/MS COL1, NHLF myofibroblast reversal assay. The format is cell-based, human. The note with it: Homo sapiens, Col1. Here is the method:
Cell culture medium was removed and cells were lysed on ice by adding 5 μl / well of pre–cooled protein extraction buffer containing 10 mM Tris–HCl (pH 8.0), 6 M urea and 2 M thiourea and shaking on ice on a plate shaker at 600 rpm for 30 min.
Cell lysate was transferred to a 96–well polypropylene–PCR–plate. 15 μl / well denaturation buffer (6 M urea, 50 mM ammonium bicarbonate) and 2 μl / well of 50 mM TCEP were added and samples were denatured for 1 h at 60°C using the Veriti 96–well Fast Thermal Cycler System (Applied Biosystem) with a heated lid. Plates were allowed to cool to RT. Subsequently, 2 μl of 100 mM iodoacetamide were added per well to derivatize cysteine residues. Plates were then sealed and vortexed for 2 min in the dark and incubated for 30 min at 37°C in a thermal cycler with a heated lid. 90 μl of 50 mM ammonium bicarbonate pH 7.8 were added, followed by the addition of 10 μl of trypsin at 0.02 μg / ml. Samples were trypsin–digested overnight at 37°C in a thermal cycler with heated lid. […] Samples were desalted under vacuum using an Oasis HLB 96–well (30 μm particle size, 5 mg sorbent / well) reverse phase cartridge according to the manufacturer’s instructions and eluted with 170 μl of 90% acetonitrile, 0.1% formic acid. Samples were dried down with a flow of nitrogen at 40°C, left to cool to RT and re–suspended in 40 μl 5% acetonitrile, 0.1% formic acid on a plate shaker set to 1400 rpm for 5 min. Plates were centrifuged at 4,000 rpm for 10 min and 2 times 12 μl / well of supernatant were transferred into separate 96–well plates (Greiner Bio–One), sealed and stored at 4°C until analyzed by MS / MS.
Surrogate tryptic peptides were chosen for detection of COL1 (COL1A1), α–SMA (ACTA) and tubulin (TBA1A1) and crude synthetic peptides were purchased from Thermo Fischer. After several rounds of optimization following standard workflows, […] (COL1 / COL1A1), […] (α–SMA / ACTA) and […] LC–MS / MS analysis was performed on a RapidFire™ RF360 system (Agilent Technologies) coupled to an API 5500 (ABSciex) with positive ion electrospray ionization. […] Detection was performed using multiple reaction monitoring (MRM) mode to monitor parent⟶product ion transitions (m / z). […] The source parameters were curtain gas (CUR) nitrogen: 20 psig; collision gas (CAD): 7 psig; ion source gas 1: 50.0 psig; ion source gas 2: 50.0 psig; ion spray voltage (IS): 5500 V; turbo heater temperature (TEM): 600°C; entrance potential (EP): 10V. Peak areas for COL1A1 and ACTA were normalized by dividing by TBA1A peak area.
To identify compounds with potential to revert differentiated myofibroblasts to fibroblasts the assay procedures were modified. After 24 h starvation, NHLF cells were stimulated with 5 ng / ml TGF–β1 for 24 h. At t = 24 h TGF–β1 was removed and either vehicle (DMSO) or compounds were added and incubated with the cells for a further 72 h.

[3] abbreviates: NHLF pre–stimulated 24 h with 5 ng/ml TGF–β1, representative experiment, S7 Fig E, read-out: IC50, reversal of COL1 (curve of a single experiment).
Where [4] appears, read: reversal assay: 24 h 5 ng/ml TGF–β1, washed, 72 h compound, normalized to tubulin, read-out: MS / MS COL1 IC50.

Molecules are shown by their SMILES. Like-named read-outs stand apart in the source and are kept apart here.

For `CCCCC[C@H](O)/C=C/[C@H]1[C@H](O)CC(=O)[C@@H]1CCCCCCC(=O)O` [Alprostadil], the IC50 amounted to 280 nM in assay [1], 2 nM in assay [2] (setting [3]) and 1.5 ± 0.7 nM in assay [2] (setting [4]).
Regarding `C[C@]12CC[C@H](O)C[C@H]1CC[C@@H]1[C@@H]2C[C@@H](O)[C@]2(C)[C@@H](C3=CC(=O)OC3)CC[C@]12O` [Digoxigenin], the values for the IC50 in assay [1] and in assay [2] (setting [4]) were 76 nM and 54 nM, respectively.
As to `Cc1cccc(-c2[nH]c(CNc3ccccc3F)nc2-c2ccc3ncnn3c2)n1` [EW–7197], the IC50 in assay [1] came out at 18000 nM; in assay [2] (setting [3]), 103 nM; in assay [2] (setting [4]) it was 82 ± 30 nM.
With `CC(C)(C)c1ccc(CN(Cc2cccc(OCC(=O)O)c2)S(=O)(=O)c2cccnc2)cc1` [Evatanepag], the IC50 in assay [1] came to 2300 nM; in assay [2] (setting [4]), 24 nM.
`O=C(CC1NCCCC1O)Cn1cnc2cc(Br)c(Cl)cc2c1=O` (centres unmarked) [Halofuginone]: the figures for the IC50 in assay [1], in assay [2] (setting [3]) and in assay [2] (setting [4]) were 120 nM, 59 nM and 116 ± 81 nM, respectively.
As for `COC(=O)c1ccc2c(c1)NC(=O)/C2=C(\Nc1ccc(N(C)C(=O)CN2CCN(C)CC2)cc1)c1ccccc1` [Nintedanib], the IC50 in assay [1] was 6900 nM; in assay [2] (setting [4]), 626 nM.
For `CCCCC[C@H](O)/C=C/[C@H]1[C@H](O)CC(=O)[C@@H]1C/C=C\CCCC(=O)O` [PGE2, prostaglandin E2] the same measures were 145 nM and 0.4 nM.
